Tests used:
[1] = target: HDAC6 (Homo sapiens (Human), UniProt Q9UBN7); assay: In vitro histone deacetylase activity assay (HTRF), HDAC6; type: biochemical; conditions: H3(1-21) K9Ac biotin substrate
Description: (§1) Human recombinant HDAC family proteins with His and GST tags were expressed using insect baculovirus expression system, and a biologically active HDAC family recombinant protein was obtained through Ni affinity column protein purification. HTRF detection method was used with H3(1-21) K9Ac biotin as the substrate. […] Briefly, 20 μl of the activity testing system included the HDAC substrate (0.2 μM. 4 μl), the Human Recombinant Protein HDAC (2-5 ng)/μl.

[2] = test system: SKM-1 cells; assay: Antiproliferative activity, CCK-8, SKM-1; type: cell-based, human; conditions: 72 h
Description: (§2) The tumor cells used were purchased from commercial cell banks (HCT116 purchased from ATCC, SKM 1 purchased from JCRB). The growth inhibition of cells was detected using the CCK-8 method. The specific steps were as follows. Cells in the logarithmic growth phase were seeded into a 96 well culture plate at an appropriate density, with 90 μL/well. After overnight cultivation, different concentrations of drugs were added for treatment for 72 h, with each concentration in triplicate, and corresponding concentration of vehicle control and cell-free blank wells were also set. After the treatment, 10 μL of CCK-8 was added to each well and the plate was incubated in an incubator for 2-4 hours, and the optical density (OD value) at a wavelength of 450 nm was measured using a SpectraMax 190 microplate reader. […] The experiment was repeated twice, and the mean value and SD were calculated.
With reference to HCT-116 cell proliferation inhibition test method, the inhibitory activity of the compounds on the proliferation of human myelodysplastic syndrome cell SKM-1 was tested.

[3] = target: HDAC2 (Homo sapiens (Human), UniProt Q92769); assay: HDAC subtype inhibitory activity (HTRF), HDAC2; type: biochemical
Description: as §1

[4] = target: HDAC3 (Homo sapiens (Human), UniProt O15379); assay: HDAC subtype inhibitory activity (HTRF), HDAC3; type: biochemical
Description: as §1

[5] = test system: MV-4-11; assay: Antiproliferative activity, CCK-8, MV-4-11; type: cell-based; conditions: MV-4-11, Acute monocyte/Monocyte leukemia; read-out: Cytotoxicity (IC50 μM)
Description: as §2
(§3) The testing method for antiproliferative activity was the same as that mentioned in Pharmacological Experiment Example 2, and the results are shown in Table 4 and FIGS. 2-3.

[6] = test system: OCI-AML3; assay: Antiproliferative activity, CCK-8, OCI-AML3; type: cell-based; conditions: OCI-AML3, Human acute myeloid leukemia; read-out: Cytotoxicity (IC50 μM)
Description: as §2, §3

[7] = test system: NU-DHL-1; assay: Antiproliferative activity, CCK-8, NU-DHL-1; type: cell-based; conditions: NU-DHL-1, Diffuse large B-cell lymphoma; read-out: Cytotoxicity (IC50 μM)
Description: as §2, §3

[8] = test system: OCI-LY-10; assay: Antiproliferative activity, CCK-8, OCI-LY-10; type: cell-based; conditions: OCI-LY-10, Diffuse large B-cell lymphoma; read-out: Cytotoxicity (IC50 μM)
Description: as §2, §3

[9] = test system: Z138; assay: Antiproliferative activity, CCK-8, Z138; type: cell-based; conditions: Z138, Human mantle cell lymphoma; read-out: Cytotoxicity (IC50 μM)
Description: as §2, §3

[10] = test system: MO-91; assay: Antiproliferative activity, CCK-8, MO-91; type: cell-based; conditions: MO-91, Acute myeloid leukemia; read-out: Cytotoxicity (IC50 μM)
Description: as §2, §3

[11] = test system: U937; assay: Antiproliferative activity, CCK-8, U937; type: cell-based; conditions: U937, Human tissue cell lymphoma; read-out: Cytotoxicity (IC50 μM)
Description: as §2, §3

[12] = test system: SU-DHL-8; assay: Antiproliferative activity, CCK-8, SU-DHL-8; type: cell-based; conditions: SU-DHL-8, Diffuse large B-cell lymphoma; read-out: Cytotoxicity (IC50 μM)
Description: as §2, §3

[13] = test system: NOMO-1; assay: Antiproliferative activity, CCK-8, NOMO-1; type: cell-based; conditions: NOMO-1, Acute monocytic leukemia; read-out: Cytotoxicity (IC50 μM)
Description: as §2, §3

[14] = test system: H9; assay: Antiproliferative activity, CCK-8, H9; type: cell-based; conditions: H9, Human T lymphocyte line; read-out: Cytotoxicity (IC50 μM)
Description: as §2, §3

[15] = test system: KMS-11; assay: Antiproliferative activity, CCK-8, KMS-11; type: cell-based; conditions: KMS-11, Human multiple myeloma; read-out: Cytotoxicity (IC50 μM)
Description: as §2, §3

[16] = test system: HuT78; assay: Antiproliferative activity, CCK-8, HuT78; type: cell-based; conditions: HuT78, Human T-lymphocytic leukemia; read-out: Cytotoxicity (IC50 μM)
Description: as §2, §3

[17] = test system: TMD8; assay: Antiproliferative activity, CCK-8, TMD8; type: cell-based; conditions: TMD8, Diffuse large B-cell lymphoma; read-out: Cytotoxicity (IC50 μM)
Description: as §2, §3

[18] = test system: PC-9; assay: Antiproliferative activity, CCK-8, PC-9; type: cell-based; conditions: PC-9, Lung cancer; read-out: Cytotoxicity (IC50 μM)
Description: as §2, §3

[19] = test system: CAKI-1; assay: Antiproliferative activity, CCK-8, CAKI-1; type: cell-based; conditions: CAKI-1, Renal cell carcinoma; read-out: Cytotoxicity (IC50 μM)
Description: as §2, §3

[20] = test system: SNU-16; assay: Antiproliferative activity, CCK-8, SNU-16; type: cell-based; conditions: SNU-16, gastric cancer; read-out: Cytotoxicity (IC50 μM)
Description: as §2, §3

[21] = test system: SNU-5; assay: Antiproliferative activity, CCK-8, SNU-5; type: cell-based; conditions: SNU-5, Gastric cancer; read-out: Cytotoxicity (IC50 μM)
Description: as §2, §3

[22] = test system: SK-BR-3; assay: Antiproliferative activity, CCK-8, SK-BR-3; type: cell-based; conditions: SK-BR-3, Breast cancer; read-out: Cytotoxicity (IC50 μM)
Description: as §2, §3

[23] = test system: A375; assay: Antiproliferative activity, CCK-8, A375; type: cell-based, human; conditions: A375, Melanoma; read-out: Cytotoxicity (IC50 μM)
Description: as §2, §3

[24] = test system: human acute myeloid leukemia cells OCI-AML-3 transplanted tumor; assay: OCI-AML-3 NOD/SCID mice transplanted tumor model; type: in vivo; conditions: oral 60 mg/kg

Sequence of HDAC2 (Q92769 whole entry): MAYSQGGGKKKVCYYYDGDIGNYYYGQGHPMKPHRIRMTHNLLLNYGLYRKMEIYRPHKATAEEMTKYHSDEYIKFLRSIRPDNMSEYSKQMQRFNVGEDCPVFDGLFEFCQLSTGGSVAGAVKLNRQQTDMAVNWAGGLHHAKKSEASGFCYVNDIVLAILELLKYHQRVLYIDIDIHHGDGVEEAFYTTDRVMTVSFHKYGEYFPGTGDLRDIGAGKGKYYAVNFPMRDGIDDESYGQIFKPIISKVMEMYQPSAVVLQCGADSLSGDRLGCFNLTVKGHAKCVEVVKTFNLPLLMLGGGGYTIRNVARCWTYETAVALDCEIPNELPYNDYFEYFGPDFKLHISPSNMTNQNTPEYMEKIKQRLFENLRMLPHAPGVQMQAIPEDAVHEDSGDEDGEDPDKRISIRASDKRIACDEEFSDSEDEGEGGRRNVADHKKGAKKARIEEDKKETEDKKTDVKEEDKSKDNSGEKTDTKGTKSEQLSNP
Sequence of HDAC6 (Q9UBN7 whole entry): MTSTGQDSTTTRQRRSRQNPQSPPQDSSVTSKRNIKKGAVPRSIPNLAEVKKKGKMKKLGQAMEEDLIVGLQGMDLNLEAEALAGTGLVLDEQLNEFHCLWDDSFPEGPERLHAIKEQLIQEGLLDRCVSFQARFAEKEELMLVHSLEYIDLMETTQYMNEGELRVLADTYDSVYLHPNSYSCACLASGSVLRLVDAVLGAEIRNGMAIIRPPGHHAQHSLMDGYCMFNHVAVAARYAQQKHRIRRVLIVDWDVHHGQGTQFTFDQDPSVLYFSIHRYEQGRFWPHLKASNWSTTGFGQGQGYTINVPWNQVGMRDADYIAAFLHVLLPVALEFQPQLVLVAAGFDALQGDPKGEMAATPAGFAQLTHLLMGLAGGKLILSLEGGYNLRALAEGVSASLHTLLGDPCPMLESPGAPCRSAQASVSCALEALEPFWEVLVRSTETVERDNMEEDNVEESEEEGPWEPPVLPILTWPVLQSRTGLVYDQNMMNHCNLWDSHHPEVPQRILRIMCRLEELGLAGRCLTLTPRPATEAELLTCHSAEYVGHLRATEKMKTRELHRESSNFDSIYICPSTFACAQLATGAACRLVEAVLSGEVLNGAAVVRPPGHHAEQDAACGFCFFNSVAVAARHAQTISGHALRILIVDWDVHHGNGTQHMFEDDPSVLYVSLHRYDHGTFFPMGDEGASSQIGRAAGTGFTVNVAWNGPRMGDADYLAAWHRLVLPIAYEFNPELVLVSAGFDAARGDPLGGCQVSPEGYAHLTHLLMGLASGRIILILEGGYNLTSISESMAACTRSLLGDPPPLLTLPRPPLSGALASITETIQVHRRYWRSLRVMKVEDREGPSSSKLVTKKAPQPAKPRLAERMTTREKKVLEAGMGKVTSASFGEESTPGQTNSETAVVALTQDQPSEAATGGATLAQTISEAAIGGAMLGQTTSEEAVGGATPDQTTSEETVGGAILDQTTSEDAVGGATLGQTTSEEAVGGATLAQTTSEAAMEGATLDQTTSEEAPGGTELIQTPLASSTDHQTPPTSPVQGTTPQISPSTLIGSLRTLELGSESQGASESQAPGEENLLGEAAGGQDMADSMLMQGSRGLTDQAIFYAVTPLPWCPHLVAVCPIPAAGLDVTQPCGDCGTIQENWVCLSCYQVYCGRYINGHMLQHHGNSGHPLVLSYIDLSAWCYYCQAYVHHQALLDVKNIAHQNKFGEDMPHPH
Sequence of HDAC3 (O15379 whole entry): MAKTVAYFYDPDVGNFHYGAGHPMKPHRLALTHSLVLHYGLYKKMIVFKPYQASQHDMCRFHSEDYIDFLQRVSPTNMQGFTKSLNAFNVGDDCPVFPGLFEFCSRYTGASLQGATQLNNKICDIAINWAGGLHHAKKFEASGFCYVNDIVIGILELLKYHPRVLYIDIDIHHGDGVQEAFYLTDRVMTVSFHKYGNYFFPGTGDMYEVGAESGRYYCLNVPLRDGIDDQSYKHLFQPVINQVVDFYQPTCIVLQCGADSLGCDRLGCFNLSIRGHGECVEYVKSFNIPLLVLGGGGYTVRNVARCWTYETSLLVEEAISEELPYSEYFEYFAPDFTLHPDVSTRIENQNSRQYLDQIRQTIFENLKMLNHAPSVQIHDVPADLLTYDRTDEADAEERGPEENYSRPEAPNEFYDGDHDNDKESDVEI
Sequence of HDAC3 (Q9Y618 395-489 partner): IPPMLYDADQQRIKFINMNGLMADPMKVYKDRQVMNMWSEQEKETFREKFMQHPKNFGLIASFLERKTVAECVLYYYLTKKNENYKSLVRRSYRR

C[C@@H](c1ccc(C(=O)Nc2ccc(F)cc2N)cc1)n1nc(-c2ccc(CN(C)C)cc2)ccc1=O [Compound I-1]
IC50 [1]: > 10000 nM
IC50 [2]: 140 ± 8 nM
IC50 [3]: 90 ± 6 nM
IC50 [4]: 420 ± 105 nM
IC50 [5]: 0.088 ± 0.002 µM
IC50 [6]: 0.121 ± 0.003 µM
IC50 [7]: 0.243 µM
IC50 [8]: 0.297 ± 0.042 µM
IC50 [9]: 0.363 ± 0.046 µM
IC50 [10]: 0.427 ± 0.163 µM
IC50 [11]: 0.435 ± 0.254 µM
IC50 [12]: 0.443 ± 0.185 µM
IC50 [13]: 0.523 ± 0.12 µM
IC50 [14]: 0.649 ± 0.044 µM
IC50 [15]: 0.671 ± 0.01 µM
IC50 [16]: 0.769 ± 0.461 µM
IC50 [17]: 0.807 ± 0.142 µM
IC50 [18]: 0.461 ± 0.034 µM
IC50 [19]: 0.594 ± 0.011 µM
IC50 [20]: 0.675 ± 0.064 µM
IC50 [21]: 0.314 ± 0.011 µM
IC50 [22]: 0.72 ± 0.032 µM
IC50 [23]: 0.556 ± 0.018 µM
relative tumor proliferation rate (T/C) ([24]; OCI-AML-3 transplanted tumor, 14 days): 7.75%
body weight of mice ([24]; during the transplanted tumor experiment): remained basically unchanged
